Experiment: Measurement of logP values by HPLC on reversed phase columns (EEC directive 79/831 Annex V.A8)
Format: physicochemical
Settings: pH 2.7

| chromatographic logP | logP | SMILES |
| --- | --- | --- |
| 2.13 |  | O=C(NO)c1cc(-c2ncnc(Nc3cccc(Cl)c3)n2)ccn1 [Example B185, 4-{4-[(3-chlorophenyl)amino]-1,3,5-triazin-2-yl}-N-hydroxypyridine-2-carboxamide] |
|  | 3.09 | COCC(C1CC1)N(C)C(=O)c1cc(-c2ncnc(Nc3cccc(Cl)c3)n2)ccn1 (centres unmarked) [Example B188] |
|  | 3.15 | COC(C)C(C)N(C)C(=O)c1cc(-c2ncnc(Nc3cccc(Cl)c3)n2)ccn1 (centres unmarked) [Example B189] |
|  | 3.31 | O=C(NC1CC1)c1cc(-c2ncnc(Nc3ccc(F)c(Cl)c3)n2)ccn1 [Example B192] |
|  | 3.19 | O=C(NCCCN1CCCCCC1=O)c1cc(-c2ncnc(Nc3ccc(F)c(Cl)c3)n2)ccn1 [Example B194] |
|  | 3.89 | CCC(COC)NC(=O)c1cc(-c2ncnc(Nc3ccc(F)c(Cl)c3)n2)ccn1 (centres unmarked) [Example B195] |
|  | 4.16 | CCC(C)NC(=O)c1cc(-c2ncnc(Nc3ccc(F)c(Cl)c3)n2)ccn1 (centres unmarked) [Example B197] |
|  | 2.58 | CN(CCC#N)C(=O)c1cc(-c2ncnc(Nc3ccc(F)c(Cl)c3)n2)ccn1 [Example B201] |
|  | 3.13 | CCN(CC)C(=O)c1cc(-c2ncnc(Nc3ccc(F)c(Cl)c3)n2)ccn1 [Example B202] |
|  | 3.13 | CCCN(C)C(=O)c1cc(-c2ncnc(Nc3ccc(F)c(Cl)c3)n2)ccn1 [Example B203] |
|  | 3.23 | CN(CC1CC1)C(=O)c1cc(-c2ncnc(Nc3ccc(F)c(Cl)c3)n2)ccn1 [Example B204] |
|  | 2.47 | CN(C)C(=O)c1cc(-c2ncnc(Nc3ccc(F)c(Cl)c3)n2)ccn1 [Example B205] |
|  | 3.46 | CC(C)CN(C)C(=O)c1cc(-c2ncnc(Nc3ccc(F)c(Cl)c3)n2)ccn1 [Example B206] |
|  | 2.75 | CCN(C)C(=O)c1cc(-c2ncnc(Nc3ccc(F)c(Cl)c3)n2)ccn1 [Example B207] |
|  | 3.33 | CCN(C)C(=S)c1cc(-c2ncnc(Nc3ccc(F)c(Cl)c3)n2)ccn1 [Example B209] |
|  | 3.17 | CCN(C)C(=S)c1cc(-c2ncnc(Nc3cccc(SC)c3)n2)ccn1 [Example B223] |
|  | 3.8 | COCC(C)NC(=O)c1cc(-c2ncnc(Nc3ccc(C)c(Cl)c3)n2)ccn1 (centres unmarked) [Example B225] |
|  | 3.62 | Cc1ccc(Nc2ncnc(-c3ccnc(C(=O)NC4CC4)c3)n2)cc1Cl [Example B226] |
|  | 3.48 | COCCNC(=O)c1cc(-c2ncnc(Nc3ccc(C)c(Cl)c3)n2)ccn1 [Example B227] |
|  | 3.02 | CCN(C)C(=O)c1cc(-c2ncnc(Nc3ccc(C)c(Cl)c3)n2)ccn1 [Example B236] |
|  | 2.1 | CN(CCC#N)C(=O)c1cc(-c2ncnc(Nc3cc(F)ccc3F)n2)ccn1 [Example B237] |
|  | 2.9 | CC(C)CN(C)C(=O)c1cc(-c2ncnc(Nc3cc(F)ccc3F)n2)ccn1 [Example B238] |

| chromatographic logP | logP | SMILES |
| --- | --- | --- |
|  | 1.94 | COCc1cccc(Nc2ncnc(-c3ccnc(C(=O)N(C)CCC#N)c3)n2)c1 [Example B239] |
|  | 2.48 | CCCN(C)C(=O)c1cc(-c2ncnc(Nc3cccc(COC)c3)n2)ccn1 [Example B241] |
|  | 2.58 | COCc1cccc(Nc2ncnc(-c3ccnc(C(=O)N(C)CC4CC4)c3)n2)c1 [Example B242] |
|  | 1.91 | COCc1cccc(Nc2ncnc(-c3ccnc(C(=O)N(C)C)c3)n2)c1 [Example B243] |
|  | 2.66 | COCc1cccc(Nc2ncnc(-c3ccnc(C(=O)N(C)CC(C)C)c3)n2)c1 [Example B244] |
|  | 2.17 | CCN(C)C(=O)c1cc(-c2ncnc(Nc3cccc(COC)c3)n2)ccn1 [Example B245] |
|  | 2.42 | COCc1cccc(Nc2ncnc(-c3ccnc(C(=O)N(C)C(C)C)c3)n2)c1 [Example B246] |
|  | 2.05 | COCCN(C)C(=O)c1cc(-c2ncnc(Nc3cccc(COC)c3)n2)ccn1 [Example B247] |
|  | 2.66 | CCN(C)C(=S)c1cc(-c2ncnc(Nc3cccc(COC)c3)n2)ccn1 [Example B248] |
|  | 3.12 | COCc1cccc(Nc2ncnc(-c3ccnc(C(=S)N(C)CC4CC4)c3)n2)c1 [Example B249] |
|  | 3.05 | CCCN(C)C(=S)c1cc(-c2ncnc(Nc3cccc(COC)c3)n2)ccn1 [Example B250] |
|  | 3.06 | CCN(C)C(=O)c1cc(-c2ncnc(Nc3cccc(S(F)(F)(F)(F)F)c3)n2)ccn1 [Example B252] |
| 3.57 |  | CCN(C)C(=S)c1cc(-c2ncnc(Nc3cccc(S(F)(F)(F)(F)F)c3)n2)ccn1 [Example B253, N-ethyl-N-methyl-4-(4-{[3-(pentafluoro-lambda^6-sulfanyl)phenyl]amino}-1,3,5-triazin-2-yl)pyridine-2-carbothioamide] |
|  | 3.15 | CCOc1cccc(Nc2ncnc(-c3ccnc(C(=S)N(C)CC)c3)n2)c1 [Example B255] |
|  | 3.41 | CCN(C)C(=S)c1cc(-c2ncnc(Nc3cccc(C(F)(F)F)c3)n2)ccn1 [Example B257] |
|  | 3.11 | CCN(C)C(=O)c1cc(-c2ncnc(Nc3cccc(C(C)C)c3)n2)ccn1 [Example B258] |
|  | 3.7 | CCN(C)C(=S)c1cc(-c2ncnc(Nc3cccc(C(C)C)c3)n2)ccn1 [Example B259] |
|  | 3.41 | CCN(C)C(=S)c1cc(-c2ncnc(Nc3cccc(OC(F)(F)C(F)F)c3)n2)ccn1 [Example B261] |
|  | 2.8 | CN(CCC#N)C(=O)c1cc(-c2ncnc(Nc3cccc(OC(F)(F)F)c3)n2)ccn1 [Example B262] |
|  | 3.39 | CCN(CC)C(=O)c1cc(-c2ncnc(Nc3cccc(OC(F)(F)F)c3)n2)ccn1 [Example B263] |
|  | 3.37 | CCCN(C)C(=O)c1cc(-c2ncnc(Nc3cccc(OC(F)(F)F)c3)n2)ccn1 [Example B264] |
|  | 3.48 | CN(CC1CC1)C(=O)c1cc(-c2ncnc(Nc3cccc(OC(F)(F)F)c3)n2)ccn1 [Example B265] |

| chromatographic logP | logP | SMILES |
| --- | --- | --- |
|  | 3.73 | CC(C)CN(C)C(=O)c1cc(-c2ncnc(Nc3cccc(OC(F)(F)F)c3)n2)ccn1 [Example B267] |
|  | 3 | CCN(C)C(=O)c1cc(-c2ncnc(Nc3cccc(OC(F)(F)F)c3)n2)ccn1 [Example B268] |
|  | 2.86 | COCCN(C)C(=O)c1cc(-c2ncnc(Nc3cccc(OC(F)(F)F)c3)n2)ccn1 [Example B270] |
|  | 2.11 | COc1cccc(Nc2ncnc(-c3ccnc(C(=O)N(C)CCC#N)c3)n2)c1 [Example B272] |
|  | 2.59 | CCN(CC)C(=O)c1cc(-c2ncnc(Nc3cccc(OC)c3)n2)ccn1 [Example B273] |
|  | 2.61 | CCCN(C)C(=O)c1cc(-c2ncnc(Nc3cccc(OC)c3)n2)ccn1 [Example B274] |
|  | 2.7 | COc1cccc(Nc2ncnc(-c3ccnc(C(=O)N(C)CC4CC4)c3)n2)c1F [Example B275] |
|  | 2.01 | COc1cccc(Nc2ncnc(-c3ccnc(C(=O)N(C)C)c3)n2)c1 [Example B276] |
|  | 2.90 | COc1cccc(Nc2ncnc(-c3ccnc(C(=O)N(C)CC(C)C)c3)n2)c1 [Example B277] |
|  | 2.51 | COc1cccc(Nc2ncnc(-c3ccnc(C(=O)N(C)C(C)C)c3)n2)c1 [Example B279] |
|  | 2.14 | COCCN(C)C(=O)c1cc(-c2ncnc(Nc3cccc(OC)c3)n2)ccn1 [Example B280] |
|  | 2.78 | CCN(C)C(=S)c1cc(-c2ncnc(Nc3cccc(OC)c3)n2)ccn1 [Example B281] |
|  | 3.15 | CCN(CC)C(=S)c1cc(-c2ncnc(Nc3cccc(OC)c3)n2)ccn1 [Example B282] |
|  | 3.15 | CCCN(C)C(=S)c1cc(-c2ncnc(Nc3cccc(OC)c3)n2)ccn1 [Example B283] |
|  | 2.25 | CN(CCC#N)C(=O)c1cc(-c2ncnc(Nc3cccc(C(F)F)c3)n2)ccn1 [Example B284] |
|  | 2.65 | CC(C)N(C)C(=O)c1cc(-c2ncnc(Nc3cccc(C(F)F)c3)n2)ccn1 [Example B290] |
|  | 1.99 | CN(CCC#N)C(=O)c1cc(-c2ncnc(Nc3cccc(C#N)c3)n2)ccn1 [Example B291] |
|  | 2.45 | CCN(CC)C(=O)c1cc(-c2ncnc(Nc3cccc(C#N)c3)n2)ccn1 [Example B292] |
|  | 2.45 | CCCN(C)C(=O)c1cc(-c2ncnc(Nc3cccc(C#N)c3)n2)ccn1 [Example B293] |
|  | 1.88 | CN(C)C(=O)c1cc(-c2ncnc(Nc3cccc(C#N)c3)n2)ccn1 [Example B294] |
|  | 2.73 | CC(C)CN(C)C(=O)c1cc(-c2ncnc(Nc3cccc(C#N)c3)n2)ccn1 [Example B295] |

| SMILES | chromatographic logP | logP |
| --- | --- | --- |
| CON(C)C(=O)c1cc(-c2ncnc(Nc3cccc(Cl)c3)n2)ccn1 [Example B186] |  | 2.59 |
| Clc1cccc(Nc2ncnc(-c3ccnc(C4=NOCCO4)c3)n2)c1 [Example B187] |  | 2.63 |
| CCN(C)C(=O)c1cc(-c2ncnc(Nc3cccc(SC)c3)n2)ccn1 [Example B222] |  | 2.6 |
| CCN(CC)C(=O)c1cc(-c2ncnc(Nc3cccc(COC)c3)n2)ccn1 [Example B240] |  | 2.48 |
| CCOc1cccc(Nc2ncnc(-c3ccnc(C(=O)N(C)CC)c3)n2)c1 [Example B254] |  | 2.6 |
| CCN(C)C(=O)c1cc(-c2ncnc(Nc3cccc(C(F)(F)F)c3)n2)ccn1 [Example B256] |  | 2.86 |
| CCN(C)C(=O)c1cc(-c2ncnc(Nc3cccc(OC(F)(F)C(F)F)c3)n2)ccn1 [Example B260] |  | 2.92 |
| CN(C)C(=O)c1cc(-c2ncnc(Nc3cccc(OC(F)(F)F)c3)n2)ccn1 [Example B266] |  | 2.7 |
| CCN(C)C(=S)c1cc(-c2ncnc(Nc3cccc(OC(F)(F)F)c3)n2)ccn1 [Example B271] |  | 3.57 |
| CCN(C)C(=O)c1cc(-c2ncnc(Nc3cccc(OC)c3)n2)ccn1 [Example B278] |  | 2.26 |
| CCN(CC)C(=O)c1cc(-c2ncnc(Nc3cccc(C(F)F)c3)n2)ccn1 [Example B285] |  | 2.73 |
| CCCN(C)C(=O)c1cc(-c2ncnc(Nc3cccc(C(F)F)c3)n2)ccn1 [Example B286] |  | 2.73 |
| CN(CC1CC1)C(=O)c1cc(-c2ncnc(Nc3cccc(C(F)F)c3)n2)ccn1 [Example B287] |  | 2.82 |
| CN(C)C(=O)c1cc(-c2ncnc(Nc3cccc(C(F)F)c3)n2)ccn1 [Example B288] |  | 2.17 |
| CC(C)CN(C)C(=O)c1cc(-c2ncnc(Nc3cccc(C(F)F)c3)n2)ccn1 [Example B289] |  | 3.04 |

Source: patent US20110218188A1, “SUBSTITUTED (PYRIDYL)-AZINYLAMINE DERIVATIVES AS FUNGICIDES” (priority 2008, published 2011)
